The structures appear in SMILES notation. The source made the active and inactive calls. How the calls were made is not given here.

The record followed here is PubChem BioAssay AID1259407 (Chemical Carcinogenesis Research Information System (CCRIS), 2018).

This series concerns CCRIS mutagenicity, Ames/micronucleus/aberration tests. Description: CCRIS mutagenicity studies.
The mark [1] stands for this setting: Test System: AMES SALMONELLA TYPHIMURIUM, Strain/Indicator: TA100(NR), Metabolic Activation: NONE, Method: PREINCUBATION
Setting [2] is: Test System: AMES SALMONELLA TYPHIMURIUM, Strain/Indicator: TA100, Metabolic Activation: NONE, Method: PREINCUBATION
[3] abbreviates: Test System: AMES SALMONELLA TYPHIMURIUM, Strain/Indicator: TA98, Metabolic Activation: NONE, Method: STANDARD PLATE.
[4] abbreviates: Test System: AMES SALMONELLA TYPHIMURIUM, Strain/Indicator: TA100, Metabolic Activation: NONE, Method: STANDARD PLATE.
Setting [5] is: Test System: AMES SALMONELLA TYPHIMURIUM, Strain/Indicator: TA1535, Metabolic Activation: NONE, Method: STANDARD PLATE.
Setting [6] is: Test System: AMES SALMONELLA TYPHIMURIUM, Strain/Indicator: TA1537, Metabolic Activation: NONE, Method: STANDARD PLATE.
The mark [7] stands for this setting: Test System: AMES SALMONELLA TYPHIMURIUM, Strain/Indicator: TA1538, Metabolic Activation: NONE, Method: STANDARD PLATE.

As to `Cc1ccnc2ccccc12`, the mutagenic call is “active; positive” (Test System: AMES SALMONELLA TYPHIMURIUM, Strain/Indicator: TA100, Metabolic Activation: RAT, LIVER, S-9, PHENOBARBITAL AND 5,6-BENZOFLAVONE, Method: PREINCUBATION); “active; positive” (Test System: AMES SALMONELLA TYPHIMURIUM, Strain/Indicator: TA100, Metabolic Activation: RAT, LIVER, S-9, PHENOBARBITAL AND 5,6-NAPHTHOFLAVONE, Method: PREINCUBATION); “active; positive” (Test System: AMES SALMONELLA TYPHIMURIUM, Strain/Indicator: TA100, Metabolic Activation: RAT, LIVER, S-9, Method: PREINCUBATION); “active; positive” (Test System: UDS RODENT HEPATOCYTES, Strain/Indicator: THY INCORP (NON-S-PHASE), Metabolic Activation: NONE, Method: AUTORADIOGRAPHY).
`CCn1c2ccccc2c2ccccc21`: the mutagenic call (Test System: UDS PRIMARY RAT HEPATOCYTES, Strain/Indicator: THY INCORP, Metabolic Activation: NONE, Method: AUTORADIOGRAPHY) was “active; positive”.
Take `N[C@@H](CSc1ccc([N+](=O)[O-])cc1[N+](=O)[O-])C(=O)O`: the mutagenic call is “active; positive” under setting [1]; “active; positive” (Test System: AMES SALMONELLA TYPHIMURIUM, Strain/Indicator: TA100/GSH-, Metabolic Activation: NONE, Method: PREINCUBATION); “active; positive” under setting [2].
For `CC1=Nc2ccccc2C1(C)C`, the mutagenic call (Test System: AMES SALMONELLA TYPHIMURIUM, Strain/Indicator: TA98, Metabolic Activation: HAMSTER, LIVER, S-9, AROCLOR 1254, Method: STANDARD PLATE) was “inactive; negative”; the mutagenic call under setting [3] was “inactive; negative”; the mutagenic call (Test System: AMES SALMONELLA TYPHIMURIUM, Strain/Indicator: TA98, Metabolic Activation: RAT, LIVER, S-9, AROCLOR 1254, Method: STANDARD PLATE) is “inactive; negative”; the mutagenic call (Test System: AMES SALMONELLA TYPHIMURIUM, Strain/Indicator: TA100, Metabolic Activation: HAMSTER, LIVER, S-9, AROCLOR 1254, Method: STANDARD PLATE) is “inactive; negative”; the mutagenic call under setting [4] was “inactive; negative”; the mutagenic call (Test System: AMES SALMONELLA TYPHIMURIUM, Strain/Indicator: TA100, Metabolic Activation: RAT, LIVER, S-9, AROCLOR 1254, Method: STANDARD PLATE) is “inactive; negative”. Further, the mutagenic call was “inactive; negative” (Test System: AMES SALMONELLA TYPHIMURIUM, Strain/Indicator: TA1535, Metabolic Activation: HAMSTER, LIVER, S-9, AROCLOR 1254, Method: STANDARD PLATE); “inactive; negative” under setting [5]; “inactive; negative” (Test System: AMES SALMONELLA TYPHIMURIUM, Strain/Indicator: TA1535, Metabolic Activation: RAT, LIVER, S-9, AROCLOR 1254, Method: STANDARD PLATE); “inactive; negative” (Test System: AMES SALMONELLA TYPHIMURIUM, Strain/Indicator: TA1537, Metabolic Activation: HAMSTER, LIVER, S-9, AROCLOR 1254, Method: STANDARD PLATE); “inactive; negative” under setting [6]; “inactive; negative” (Test System: AMES SALMONELLA TYPHIMURIUM, Strain/Indicator: TA1537, Metabolic Activation: RAT, LIVER, S-9, AROCLOR 1254, Method: STANDARD PLATE). The mutagenic call by setting is: (Test System: AMES SALMONELLA TYPHIMURIUM, Strain/Indicator: TA1538, Metabolic Activation: HAMSTER, LIVER, S-9, AROCLOR 1254, Method: STANDARD PLATE) “inactive; negative”; under setting [7], “inactive; negative”; (Test System: AMES SALMONELLA TYPHIMURIUM, Strain/Indicator: TA1538, Metabolic Activation: RAT, LIVER, S-9, AROCLOR 1254, Method: STANDARD PLATE) “inactive; negative”; (Test System: MOUSE LYMPHOMA, Strain/Indicator: L5178Y (TK+/TK-), Metabolic Activation: NONE, Method: SUSPENSION/PLATE) “inactive; positive. reevaluation of results: negative”; (Test System: MOUSE LYMPHOMA, Strain/Indicator: L5178Y (TK+/TK-), Metabolic Activation: RAT, LIVER, S-9, AROCLOR 1254, Method: SUSPENSION/PLATE) “active; positive. reevaluation of results: inconclusive”.
Regarding `O=[N+]([O-])c1ccc(Nc2ncnc3nc[nH]c23)cc1`, the mutagenic call (Test System: AMES SALMONELLA TYPHIMURIUM, Strain/Indicator: TA98(1,8-DNP), Metabolic Activation: NONE, Method: PREINCUBATION) was “inactive; negative”; the mutagenic call (Test System: AMES SALMONELLA TYPHIMURIUM, Strain/Indicator: TA98(1,8-DNP), Metabolic Activation: RAT, LIVER, S-9, PCB, Method: PREINCUBATION) is “inactive; negative”; the mutagenic call (Test System: AMES SALMONELLA TYPHIMURIUM, Strain/Indicator: TA98(NR), Metabolic Activation: NONE, Method: PREINCUBATION) was “inactive; negative”; the mutagenic call (Test System: AMES SALMONELLA TYPHIMURIUM, Strain/Indicator: TA98(NR), Metabolic Activation: RAT, LIVER, S-9, PCB, Method: PREINCUBATION) is “inactive; negative”; the mutagenic call (Test System: AMES SALMONELLA TYPHIMURIUM, Strain/Indicator: TA98, Metabolic Activation: NONE, Method: PREINCUBATION) is “inactive; negative”; the mutagenic call (Test System: AMES SALMONELLA TYPHIMURIUM, Strain/Indicator: TA98, Metabolic Activation: RAT, LIVER, S-9, PCB, Method: PREINCUBATION) was “inactive; negative”. The mutagenic call is “inactive; negative” (Test System: AMES SALMONELLA TYPHIMURIUM, Strain/Indicator: TA100(1,8-DNP), Metabolic Activation: NONE, Method: PREINCUBATION); “inactive; negative” (Test System: AMES SALMONELLA TYPHIMURIUM, Strain/Indicator: TA100(1,8-DNP), Metabolic Activation: RAT, LIVER, S-9, PCB, Method: PREINCUBATION); “inactive; negative” under setting [1]; “inactive; negative” (Test System: AMES SALMONELLA TYPHIMURIUM, Strain/Indicator: TA100(NR), Metabolic Activation: RAT, LIVER, S-9, PCB, Method: PREINCUBATION); “inactive; negative” under setting [2]; “inactive; negative” (Test System: AMES SALMONELLA TYPHIMURIUM, Strain/Indicator: TA100, Metabolic Activation: RAT, LIVER, S-9, PCB, Method: PREINCUBATION). The mutagenic call by setting is: (Test System: AMES SALMONELLA TYPHIMURIUM, Strain/Indicator: YG1020, Metabolic Activation: NONE, Method: PREINCUBATION) “inactive; negative”; (Test System: AMES SALMONELLA TYPHIMURIUM, Strain/Indicator: YG1020, Metabolic Activation: RAT, LIVER, S-9, PCB, Method: PREINCUBATION) “inactive; negative”; (Test System: AMES SALMONELLA TYPHIMURIUM, Strain/Indicator: YG1021, Metabolic Activation: NONE, Method: PREINCUBATION) “inactive; negative”; (Test System: AMES SALMONELLA TYPHIMURIUM, Strain/Indicator: YG1021, Metabolic Activation: RAT, LIVER, S-9, PCB, Method: PREINCUBATION) “inactive; negative”; (Test System: AMES SALMONELLA TYPHIMURIUM, Strain/Indicator: YG1024, Metabolic Activation: NONE, Method: PREINCUBATION) “inactive; negative”; (Test System: AMES SALMONELLA TYPHIMURIUM, Strain/Indicator: YG1024, Metabolic Activation: RAT, LIVER, S-9, PCB, Method: PREINCUBATION) “inactive; negative”. Besides, the mutagenic call runs as follows: (Test System: AMES SALMONELLA TYPHIMURIUM, Strain/Indicator: YG1025, Metabolic Activation: NONE, Method: PREINCUBATION) “inactive; negative”; (Test System: AMES SALMONELLA TYPHIMURIUM, Strain/Indicator: YG1025, Metabolic Activation: RAT, LIVER, S-9, PCB, Method: PREINCUBATION) “inactive; negative”; (Test System: AMES SALMONELLA TYPHIMURIUM, Strain/Indicator: YG1026, Metabolic Activation: NONE, Method: PREINCUBATION) “inactive; negative”; (Test System: AMES SALMONELLA TYPHIMURIUM, Strain/Indicator: YG1026, Metabolic Activation: RAT, LIVER, S-9, PCB, Method: PREINCUBATION) “inactive; negative”; (Test System: AMES SALMONELLA TYPHIMURIUM, Strain/Indicator: YG1029, Metabolic Activation: NONE, Method: PREINCUBATION) “inactive; negative”; (Test System: AMES SALMONELLA TYPHIMURIUM, Strain/Indicator: YG1029, Metabolic Activation: RAT, LIVER, S-9, PCB, Method: PREINCUBATION) “inactive; negative”.
Regarding `O=Nc1c(-c2ccc([N+](=O)[O-])cc2)nc2sccn12`, the mutagenic call reads like this: under setting [3], “active; positive”; under setting [4], “active; positive”; under setting [5], “active; positive”; under setting [6], “active; positive”; under setting [7], “active; positive”.
